pEC50: −log10 of the molar value. Like-named read-outs stand apart in the source and are kept apart here.
Key:
[1] = system: prostate cancer (5 cell lines); test: CellTiter-Glo Viability Assay, prostate cancer; format: cell-based; conditions: Homo sapiens
Method: (§1) Fifty-one human cancer cell lines (breast cancer (8 cell lines), colorectal cancer (6 cell lines), haematopoietic & lymphoid tumors (13 cell lines), liver cancer (3 cell lines), lung cancer (4 cell lines), ovarian cancer (4 cell lines), pancreatic cancer (8 cell lines), and prostate cancer (5 cell lines)) were tested to determine the effects of representative compounds of Formulas (I)-(XII) on cellular proliferation, as evaluated using the CellTiter-Glo® Viability Assay.
(§2) For the Cell Viability Assays, cells were plated at 300-3,000 cells/well in 384-well plates in their respective media containing 1% Penicillin-Streptomycin and incubated for four days at 37° C. and 5% CO2. Twenty-eight replicates of DMSO-treated cells served as controls and cells treated with compound were performed in duplicate.
(§3) After incubation, 10 μL of CellTiter-Glo® (Promega) was added to each well allowed to incubate for approximately 12 minutes. This reagent results in cell lysis and generation of a luminescent signal proportional to the amount of ATP present. The amount of ATP is directly proportional to the number of metabolically active, viable cells present in culture. The CellTiter-Glo® Assay generates a luminescent signal, produced by the luciferase reaction (Promega.com).
(§4) After incubation, the luminescence signal was read using an EnVision™ Multilabel Plate Reader (Perkin Elmer). Dose-response curves were generated and EC50 concentration values were calculated using Dotmatics' Studies Software (Bishops Stortford, UK).

CLK3 = CLK3 (Homo sapiens, UniProt P49761); test: CLK3 kinase activity assay (Z-lyte, Ser/Thr 18 peptide)
[2] = system: lung cancer (4 cell lines); test: CellTiter-Glo Viability Assay, lung cancer; format: cell-based; conditions: Homo sapiens, inhibition of cancer cell proliferation
Method: as §1, §2, §3, §4

[3] = system: pancreatic cancer (8 cell lines); test: CellTiter-Glo Viability Assay, pancreatic cancer; format: cell-based; conditions: Homo sapiens, inhibition of cancer cell proliferation
Method: as §1, §2, §3, §4

[4] = system: colorectal cancer (6 cell lines); test: CellTiter-Glo Viability Assay, colorectal cancer; format: cell-based; conditions: Homo sapiens, inhibition of cancer cell proliferation
Method: as §1, §2, §3, §4

[5] = system: liver cancer (3 cell lines); test: CellTiter-Glo Viability Assay, liver cancer; format: cell-based; conditions: Homo sapiens, inhibition of cancer cell proliferation
Method: as §1, §2, §3, §4

BT-549 = test: CellTiter-Glo Viability Assay, breast cancer; format: cell-based; conditions: Homo sapiens, 96 h; BT-549, breast cancer, four days; read-out: EC50
Method: as §1, §2, §3, §4

HCC1599 = test: CellTiter-Glo Viability Assay, breast cancer; format: cell-based; conditions: Homo sapiens, 96 h; HCC1599, breast cancer, four days; read-out: EC50
Method: as §1, §2, §3, §4

MCF7 = test: CellTiter-Glo Viability Assay, breast cancer; format: cell-based; conditions: Homo sapiens, 96 h; MCF7, breast cancer, four days; read-out: EC50
Method: as §1, §2, §3, §4

T47D = test: CellTiter-Glo Viability Assay, breast cancer; format: cell-based; conditions: Homo sapiens, 96 h, breast cancer, four days, read-out: EC50
Method: as §1, §2, §3, §4

ZR-75-1 = test: CellTiter-Glo Viability Assay, breast cancer; format: cell-based; conditions: Homo sapiens, 96 h; ZR-75-1, breast cancer, four days; read-out: EC50
Method: as §1, §2, §3, §4

DU4475 = test: CellTiter-Glo Viability Assay, breast cancer; format: cell-based; conditions: Homo sapiens, DU-4475, 96 h; DU4475, breast cancer, four days; read-out: EC50
Method: as §1, §2, §3, §4

CAMA1 = test: CellTiter-Glo Viability Assay, breast cancer; format: cell-based; conditions: Homo sapiens, CAMA-1, 96 h; CAMA1, breast cancer, four days; read-out: EC50
Method: as §1, §2, §3, §4

[6] = system: ovarian cancer (4 cell lines); test: CellTiter-Glo Viability Assay, ovarian cancer; format: cell-based; conditions: Homo sapiens, inhibition of cancer cell proliferation
Method: as §1, §2, §3, §4

CLK2 = target: T1, CLK2 (Homo sapiens, UniProt P49760); test: CLK2 kinase activity assay (Z-lyte, Ser/Thr 6 peptide); format: biochemical; conditions: recombinant CLK2 kinase, ATP 60 μM; read-out: EC50
T1 construct: purchased Thermo Fisher (Life Technologies), Z'-LYTE Kinase Assay Kits
Method: All reactions were performed in duplicate.

all 50 cell lines = test: CellTiter-Glo Viability Assay, average across all cell lines; format: cell-based; conditions: Homo sapiens; across all 50 cell lines; read-out: average EC50 for inhibition of cancer cell proliferation
Method: as §1, §2, §3, §4

[7] = system: haematopoietic & lymphoid tumors (13 cell lines); test: CellTiter-Glo Viability Assay, haematopoietic & lymphoid tumors; format: cell-based; conditions: Homo sapiens, inhibition of cancer cell proliferation
Method: as §1, §2, §3, §4

T1 sequence (P49760 whole entry): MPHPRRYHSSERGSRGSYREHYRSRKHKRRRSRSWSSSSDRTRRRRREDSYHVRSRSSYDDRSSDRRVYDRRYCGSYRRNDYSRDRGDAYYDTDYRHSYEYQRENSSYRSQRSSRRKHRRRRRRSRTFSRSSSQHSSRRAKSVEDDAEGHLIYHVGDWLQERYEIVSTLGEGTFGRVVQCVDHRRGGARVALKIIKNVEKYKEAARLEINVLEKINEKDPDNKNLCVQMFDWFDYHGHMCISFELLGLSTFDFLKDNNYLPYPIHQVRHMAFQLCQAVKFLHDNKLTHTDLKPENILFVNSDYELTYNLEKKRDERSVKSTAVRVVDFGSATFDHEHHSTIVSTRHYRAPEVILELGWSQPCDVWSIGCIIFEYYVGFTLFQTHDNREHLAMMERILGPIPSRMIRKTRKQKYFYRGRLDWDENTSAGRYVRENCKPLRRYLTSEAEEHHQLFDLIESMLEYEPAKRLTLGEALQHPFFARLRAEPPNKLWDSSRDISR
CLK3, sequence (P49761 whole entry): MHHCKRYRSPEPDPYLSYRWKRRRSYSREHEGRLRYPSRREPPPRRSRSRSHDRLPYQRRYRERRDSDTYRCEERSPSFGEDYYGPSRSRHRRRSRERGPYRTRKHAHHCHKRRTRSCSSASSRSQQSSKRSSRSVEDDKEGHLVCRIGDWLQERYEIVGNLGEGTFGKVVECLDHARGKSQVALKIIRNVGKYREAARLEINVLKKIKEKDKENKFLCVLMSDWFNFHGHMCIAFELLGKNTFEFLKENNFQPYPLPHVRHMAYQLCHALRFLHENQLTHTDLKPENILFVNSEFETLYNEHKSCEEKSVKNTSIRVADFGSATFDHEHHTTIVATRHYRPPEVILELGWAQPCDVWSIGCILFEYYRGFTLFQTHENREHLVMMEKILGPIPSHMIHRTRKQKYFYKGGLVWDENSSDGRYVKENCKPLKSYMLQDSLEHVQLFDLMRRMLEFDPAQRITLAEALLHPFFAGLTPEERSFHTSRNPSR

Q: With `CN1CCN(c2cc(C(=O)Nc3cc4cc(-c5cn(C)nn5)ccc4cn3)ccn2)CC1` [Compound 14] as the compound, how does the pEC50 ([1]; DU-145, read-out: Prostate cancer EC50 Du-145) read?
A: 6.49

Q: And the pEC50 ([1]; PC-3, PC3 cell line, inhibition of cancer cell proliferation, read-out: Prostate cancer EC50 PC3)?
A: 6.62

Q: What about the pEC50 ([1]; 22Rv1 cell line, inhibition of cancer cell proliferation, read-out: Prostate cancer EC50 22Rv1) of the same compound?
A: 6.58

Q: What about the pEC50 ([1]; LNCap clone FGC cell line, inhibition of cancer cell proliferation, read-out: Prostate cancer EC50 LNCap clone FGC) of the same compound?
A: 6.37

Q: And the pEC50 ([1]; VCaP (Sigma) cell line, inhibition of cancer cell proliferation, read-out: Prostate cancer EC50 VCaP (Sigma))?
A: 6.23

Q: And the pEC50 (CLK3)?
A: 7.62

Q: And the EC50 ([2]; A-427, A427 cell line, read-out: Lung cancer, EC50 (μM) A427)?
A: 0.303 µM

Q: What about the EC50 ([2]; HCC78, HCC-78 cell line, read-out: Lung cancer, EC50 (μM) HCC-78) of the same compound?
A: 0.467 µM

Q: And the EC50 ([2]; NCI-H460 cell line, read-out: Lung cancer, EC50 (μM) NCI-H460)?
A: 0.268 µM

Q: And the EC50 ([2]; NCI-H522 cell line, read-out: Lung cancer, EC50 (μM) NCI-H522)?
A: 0.142 µM

Q: What about the pEC50 ([3]; BXPC-3, BxPC3 cell line, read-out: Pancreatic cancer, EC50 BxPC3) of the same compound?
A: 6.32

Q: And the pEC50 ([3]; CAPAN-1, Capan1 cell line, read-out: Pancreatic cancer, EC50 Capan1)?
A: 6.65

Q: What about the pEC50 ([3]; Capan-2, Capan2 cell line, read-out: Pancreatic cancer, EC50 Capan2) of the same compound?
A: 6.33

Q: What about the pEC50 ([3]; MIA PaCa-2 cell line, read-out: Pancreatic cancer, EC50 MIA PaCa-2) of the same compound?
A: 6.87

Q: And the pEC50 ([3]; PANC 05.04 cell line, read-out: Pancreatic cancer, EC50 PANC 05.04)?
A: 6.49

Q: What about the pEC50 ([3]; PANC-1 cell line, read-out: Pancreatic cancer, EC50 PANC-1) of the same compound?
A: 6.37

Q: And the pEC50 ([3]; UPAFII cell line, read-out: Pancreatic cancer, EC50 UPAFII)?
A: 6.80

Q: What about the EC50 ([4]; HCT-116, HCT116 cell line, read-out: Colorectal cancer, EC50 (μM) HCT116) of the same compound?
A: 0.14 µM

Q: And the EC50 ([4]; HT-29, HT29 cell line, read-out: Colorectal cancer, EC50 (μM) HT29)?
A: 0.295 µM

Q: And the EC50 ([4]; SW-620, SW620 cell line, read-out: Colorectal cancer, EC50 (μM) SW620)?
A: 0.113 µM

Q: What about the EC50 ([4]; DLD-1 cell line, read-out: Colorectal cancer, EC50 (μM) DLD-1) of the same compound?
A: 0.161 µM

Q: And the EC50 ([4]; SW48 cell line, read-out: Colorectal cancer, EC50 (μM) SW48)?
A: 0.096 µM

Q: And the EC50 ([4]; SW480 cell line, read-out: Colorectal cancer, EC50 (μM) SW480)?
A: 0.191 µM

Q: What about the pEC50 ([5]; SNU-398, SNU398 cell line, read-out: Liver cancer, EC50 SNU398) of the same compound?
A: 7.16

Q: What about the pEC50 ([5]; HEPG2 cell line, read-out: Liver cancer, EC50 HEPG2) of the same compound?
A: 6.37

Q: What about the pEC50 ([5]; PLC/PRF/5 cell line, read-out: Liver cancer, EC50 PLC/PRF/5) of the same compound?
A: 6.27

Q: What about the pEC50 (BT-549) of the same compound?
A: 6.47

Q: And the pEC50 (HCC1599)?
A: 6.78

Q: And the pEC50 (MCF7)?
A: 6.14

Q: What about the pEC50 (T47D) of the same compound?
A: 6.30

Q: What about the pEC50 (ZR-75-1) of the same compound?
A: 6.39

Q: And the pEC50 (DU4475)?
A: 6.86

Q: What about the pEC50 (CAMA1) of the same compound?
A: 6.48

Q: And the EC50 ([6]; PA-1, PA1 cell line, read-out: Ovarian cancer, EC50 (μM) PA1)?
A: 0.186 µM

Q: And the EC50 ([6]; TOV112D, TOV-112D cell line, read-out: Ovarian cancer, EC50 (μM) TOV-112D)?
A: 0.171 µM

Q: What about the EC50 ([6]; OV-90 cell line, read-out: Ovarian cancer, EC50 (μM) OV-90) of the same compound?
A: 0.464 µM

Q: And the EC50 ([6]; OVCAR-3 cell line, read-out: Ovarian cancer, EC50 (μM) OVCAR-3)?
A: 0.116 µM

Q: What about the pEC50 (CLK2) of the same compound?
A: 8.70

Q: What about the pEC50 (all 50 cell lines) of the same compound?
A: 6.54

Q: What about the EC50 ([7]; DND41, DND-41 cell line, read-out: Haematopoietic & Lymphoid tumors, EC50 (μM) DND-41) of the same compound?
A: 0.216 µM

Q: What about the EC50 ([7]; MV4-11, MV-4-11 cell line, read-out: Haematopoietic & Lymphoid tumors, EC50 (μM) MV-4-11) of the same compound?
A: 0.101 µM

Q: And the EC50 ([7]; Rec1, REC-1 cell line, read-out: Haematopoietic & Lymphoid tumors, EC50 (μM) REC-1)?
A: 0.08 µM

Q: What about the EC50 ([7]; SU-DHL-4, SUDHL4 cell line, read-out: Haematopoietic & Lymphoid tumors, EC50 (μM) SUDHL4) of the same compound?
A: 0.317 µM

Q: And the EC50 ([7]; HL-60 cell line, read-out: Haematopoietic & Lymphoid tumors, EC50 (μM) HL-60)?
A: 0.719 µM

Q: What about the EC50 ([7]; JM1 cell line, read-out: Haematopoietic & Lymphoid tumors, EC50 (μM) JM1) of the same compound?
A: 0.093 µM

Q: What about the EC50 ([7]; JURKAT, Clone E6-1 cell line, read-out: Haematopoietic & Lymphoid tumors, EC50 (μM) JURKAT, Clone E6-1) of the same compound?
A: 0.511 µM

Q: And the EC50 ([7]; JeKo-1 cell line, read-out: Haematopoietic & Lymphoid tumors, EC50 (μM) JeKo-1)?
A: 0.073 µM

Q: And the EC50 ([7]; KASUMI-1 cell line, read-out: Haematopoietic & Lymphoid tumors, EC50 (μM) KASUMI-1)?
A: 0.174 µM

Q: And the EC50 ([7]; Loucy cell line, read-out: Haematopoietic & Lymphoid tumors, EC50 (μM) Loucy)?
A: 0.192 µM

Q: And the EC50 ([7]; MOLT-4 cell line, read-out: Haematopoietic & Lymphoid tumors, EC50 (μM) MOLT-4)?
A: 0.327 µM

Q: And the EC50 ([7]; TF-1 cell line, read-out: Haematopoietic & Lymphoid tumors, EC50 (μM) TF-1)?
A: 0.367 µM

Q: What about the EC50 ([7]; TOLEDO cell line, read-out: Haematopoietic & Lymphoid tumors, EC50 (μM) TOLEDO) of the same compound?
A: 0.104 µM

Reference: patent publication US20220062240A1, “METHODS OF TREATING CANCER USING A CLK INHIBITOR” (BioSplice Therapeutics, Inc., priority 2018, published 2022)
